Columns and labels:
[1] = system: GFP expressing leukemia cells; test: In vivo anti-leukemic activity, GFP expressing leukemia cells injected into mice; conditions: 3.5 mg/kg
Protocol: The anti-leukemic activity of Compound 8 (FIG. 1) was evaluated in vivo. GFP expressing leukemia cells were injected into mice. One week post injection, mice were treated with Compound 8 at 3.5 mg/kg or DMSO (control) (FIG. 11A). Mice were imaged one week later. […] Further, bone marrow was isolated and the percent of GFP expressing AML stem cells was quantitated.

Hs578T cells = test: Hs578T cell viability, Calcein-AM fluorescence, 48 hours; format: cell-based; conditions: Homo sapiens, Hs-578T
Protocol: Some of these compounds were also screened against breast cancer cell line Hs578T. Briefly, Hs578T cells were seeded at 3,000 cells per well into 96-well plates and incubated overnight at 37° C. in DMEM (Dulbecco's Modified Eagle's Medium) containing 10% FBS (Fetal Bovine Serum) medium. The following day, various concentrations of combretastin analogs, or vehicle, were added to each plate and the plates were then incubated for 48 hours. Then, cells were washed twice with Dulbecco's Phosphate-Buffered Saline (DPBS) pH 7.4 and incubated with 2 μM Calcein-AM for 30 minutes at 25° C. Fluorescence was measured using a 490 nm excitation filter and a 520 nm emission filter. The fluorescence intensity is proportional to the number of viable cells. The fluorescence intensity of control (untreated) cells was taken as 100% viability. The relative cell viability compared to control was calculated by using the following formula: Cell viability (%)=Fluorescence intensity of treated cells/Fluorescence intensity of untreated cells×100.
The GI50 values (growth inhibition; anti-proliferation) were calculated using GraphPad prism (San Diego, Calif.) by plotting the percent cell viability as a function of the compound concentration and fit to a four-parameter logistic model. The data represents mean±standard deviation of three independent experiments.

## COc1cc(-c2n[nH]nc2-c2ccc3c(c2)OCO3)cc(OC)c1OC [Compound 8, 4-(benzo[d][1,3]dioxol-5-yl)-5-(3,4,5-trimethoxyphenyl)-2H-1,2,3-triazole]
[1]; imaged one week after treatment, relative to DMSO and untreated mice
  tumor shrinkage, imaging of GFP expressing cells (FIG. 11C): significant tumor shrinkage
[1]; isolated bone marrow
  percent of GFP expressing AML stem cells in bone marrow (FIG. 10): significant reduction in AML stem cells
[1]; versus DMSO control
  average radiance (FIG. 11B): significant reduction in leukemia cells

## COc1cc(-c2n[nH]nc2-c2cc3ccccc3s2)cc(OC)c1OC [PNR-7-74, 4-(benzo[b]thiophen-2-yl)-5-(3,4,5-trimethoxyphenyl)-2H-1,2,3-triazole]
Hs578T cells
  GI50: 0.0103 µM
other
  melting point: 189 to 191 °C

## COc1cc(-c2n[nH]nc2-c2cc3ccccc3o2)cc(OC)c1OC [PNR-7-81, 4-(benzofuran-2-yl)-5-(3,4,5-trimethoxyphenyl)-2H-1,2,3-triazole]
Hs578T cells
  GI50: 0.0203 µM
other
  melting point: 158 to 160 °C

## COc1cc(OC)cc(-c2n[nH]nc2-c2cc3ccccc3s2)c1 [PNR-7-83, 4-(benzo[b]thiophen-2-yl)-5-(3,5-dimethoxyphenyl)-2H-1,2,3-triazole]
Hs578T cells
  GI50: 0.0665 µM
